Experimental findings from patent US8452543B2, “High throughput screening for antimicrobial dosing regimens” (priority 2005, dated 2013) are described below.

In general, MBC refers to the lowest tested concentration that kills the bacteria rather than only halting them. Lower therefore signals more potent killing.

Converted amounts (≈) assume the structure as drawn. Like-named read-outs stand apart in the source and are kept apart here.

The test system of experiment [1] is P. aeruginosa PA 27853 and resistant isolates MR1, MR2, MR3. In words: microbe, parasite or virus in culture. The conditions noted are these: Pseudomonas aeruginosa. The experiment is classed as cell-based, Pseudomonas aeruginosa. The protocol: Minimum inhibitory concentration (MIC)/minimum bactericidal concentration (MBC) were determined in Ca-MHB using a modified macrobroth dilution method as described by the CLSI (10). The final concentration of bacteria in each macrobroth dilution tube was approximately 5×10^5 cfu/ml of Ca-MHB. Serial twofold dilutions of meropenem were used. […] Samples (50 μl) from clear tubes and the cloudy tube with the highest drug concentration were plated on Mueller-Hinton agar (MHA) plates (Hardy Diagnostics, Santa Maria, Calif.). […] Drug carry-over effect was assessed by visual inspection of the distribution of colonies on media plates. The studies were conducted in duplicate and repeated at least once on a separate day.

Experiment [2] shares this test system. Briefly: microbe, parasite or virus in culture. It counts as cell-based. As to conditions: Pseudomonas aeruginosa, Etest.
In experiment [3] the test system is amikacin resistant A. baumannii isolates. Briefly: Resistance confirmation, repeat susceptibility testing, amikacin. The experiment is classed as cell-based, Acinetobacter baumannii. The conditions noted are these: for cross-resistance: amikacin resistant isolates.
Experimental: The media plates were incubated at 35° C. for up to 24 (total population) and 72 hours (sub-populations with reduced susceptibility), then bacterial density from each sample was enumerated visually. The theoretical lower limit of detection was 400 CFU/ml.
Experiment [4] deals with A. baumannii ATCC BAA 747. Briefly: MIC/MBC, modified macrobroth dilution. The conditions noted are these: Acinetobacter baumannii, BAA747; A. baumannii isolate (AB BAA 747). It counts as cell-based. The protocol: (§1) The final concentration of bacteria in each macrobroth dilution tube was approximately 5×10^5 cfu/ml of Ca-MHB. Serial twofold dilutions of meropenem were used. […] Samples (50 μl) from clear tubes and the cloudy tube with the highest drug concentration were plated on Mueller-Hinton agar (MHA) plates (Hardy Diagnostics, Santa Maria, Calif.). […] Drug carry-over effect was assessed by visual inspection of the distribution of colonies on media plates. The studies were conducted in duplicate and repeated at least once on a separate day.

The subject of experiment [5] is A. baumannii ATCC BAA 747. In words: Time-kill studies and best-fit model, amikacin. It counts as cell-based, Acinetobacter baumannii.
Experiment [6] concerns levofloxacin resistant P. aeruginosa isolates. In words: Susceptibility of levofloxacin resistant isolates, screening panel. It counts as cell-based, Pseudomonas aeruginosa.
The test system of experiment [7] is P. aeruginosa ATCC 27853. In words: Time-kill studies and model fit, levofloxacin. The experiment is classed as cell-based, Pseudomonas aeruginosa. As to conditions: for EC50: Pseudomonas aeruginosa. The protocol:
An overnight culture of the isolate was diluted 30-fold with pre-warmed Ca-MHB and incubated further at 35 C until reaching late log phase growth. The bacterial suspension was diluted with Ca-MHB accordingly based on absorbance at 630 nm; 15 mL of the suspension was transferred to 50 mL sterile conical flasks each containing 1 mL of a drug solution at 16·the target concentration. The final concentration of the bacterial suspension in each flask at baseline was approximately 1×10^8 CFU/mL.
The high inoculum was used to simulate the bacterial load in a severe infection, e.g., nosocomial pneumonia. Furthermore, the high inoculum used would allow resistant sub-population(s) to be likely present at baseline. The experiment was conducted for 24 h in a shaker water bath set at 35° C. Serial samples (baseline, 0.5, 1, 2, 4, 8, 12, and 24 h) were obtained from each flask over 24 h to characterize the effect of various drug exposures on the total bacterial population.
Prior to culturing the bacteria quantitatively, the bacterial samples (0.5 mL) were centrifuged at 10,000 g for 15 min, and reconstituted with sterile normal saline to their original volumes in order to minimize drug carry-over effect. Total bacterial populations were quantified by spiral plating 10 serial dilutions of the samples (50 IL) onto Ca-MHA plates. The media plates were incubated in a humidified incubator (35° C. for 18-24 h, and the bacterial density from each sample was determined by CASBA-4 colony scanner/software (Spiral Biotech, Bethesda, Md.). The reliable limit of detection was 400 CFU/mL. The experiment was repeated once on a separate day.
The mathematical framework described Example 1 is used to predict whether a microbial population will be eradicated or survive under an antimicrobial pressure whose concentration over time follows a clinically realistic (time-periodic) profile. For absence of agent (placebo, C=0 Ig/mL) and by inspection in FIG. 13 it is determined that Nmax=10^9.4 CFU/mL. Using this value for Nmax standard nonlinear least squares (differential evolution of mathematica) is used to get a growth rate constant value Kg=0.22 h^−1.
It is assumed that Kg is the same for all bacterial sub-populations, owing to common basic physiology. For the highest agent concentration used (C=64 Ig/mL) there appears to be complete eradication of the entire microbial population after the third sample in time. Therefore, no experimental points beyond that are considered in the data fit. Further, it is assumed that the maximum kill rate, Kk, occurring at an antibiotic concentration high enough to saturate all bacterial target sites, is the same for all bacteria, namely Kk=Kb. […] The values of the remaining parameters are estimated using standard nonlinear least squares for concentrations C=0.5, . . . , 32 Ig/mL (Table 4).

Experiment [8] has as its system P. aeruginosa ATCC 27853. In words: MIC/MBC, modified macrobroth dilution. It counts as cell-based, Pseudomonas aeruginosa. As to conditions: P. aeruginosa ATCC 27853. On the procedure: as §1
(In general: In broth dilution the organism is exposed to a series of concentrations in liquid medium.)

The mark [9] stands for this setting: strain MR1 (Placebo exposure, OprD−).
Where [10] appears, read: strain MR2 (Cmin/MIC 0.5, OprD− & Mex+).
Setting [11] is: strain MR3 (Cmin/MIC 1.7, OprD− & Mex+), read-out: MIC.

Consider `CC1(C)S[C@@H]2[C@H](NC(=O)C(C(=O)O)c3ccccc3)C(=O)N2[C@H]1C(=O)O` (stereo partly shown) [CAR, carbenicillin], for which the MIC in experiment [1] (strain MR2 (Cmin/MIC 0.5, OprD− & Mex+), macrobroth method) is 512 µg/mL (≈ 1350 µM); in experiment [1] (strain MR3 (Cmin/MIC 1.7, OprD− & Mex+), macrobroth method, read-out: MIC), 512 µg/mL (≈ 1350 µM); in experiment [1] (strain PA 27853, macrobroth method) it was 64 µg/mL (≈ 169 µM).
As to `CC(C)(O/N=C(\C(=O)N[C@@H]1C(=O)N2C(C(=O)[O-])=C(C[n+]3ccccc3)CS[C@H]12)c1csc(N)n1)C(=O)O` [CAZ, ceftazidime], the MIC worked out at 1 µg/mL (≈ 1.83 µM) in experiment [2] (setting [9]), 2 µg/mL (≈ 3.66 µM) in experiment [2] (setting [10]), 4 µg/mL (≈ 7.32 µM) in experiment [2] (setting [11]) and 1 µg/mL (≈ 1.83 µM) in experiment [2] (strain PA 27853).
With `C[C@@H](O)[C@H]1C(=O)N2C(C(=O)O)=C(SCCN=CN)C[C@H]12` [IPM, imipenem], the MIC in experiment [2] (setting [9]) is above 32 µg/mL; in experiment [2] (setting [10]), above 32 µg/mL; in experiment [2] (setting [11]), 32 µg/mL (≈ 107 µM); in experiment [2] (strain PA 27853), 3 µg/mL (≈ 10 µM).
Consider `CCN1CCN(C(=O)N[C@@H](C(=O)N[C@@H]2C(=O)N3[C@@H]2SC(C)(C)[C@@H]3C(=O)O)c2ccccc2)C(=O)C1=O` [PIP, piperacillin], for which the MIC in experiment [2] (setting [9]) came to 3 µg/mL (≈ 5.8 µM); in experiment [2] (setting [10]), 8 µg/mL (≈ 15.5 µM); in experiment [2] (setting [11]) it was 32 µg/mL (≈ 61.8 µM); in experiment [2] (strain PA 27853), 3 µg/mL (≈ 5.8 µM).
`NC[C@H]1O[C@H](O[C@H]2[C@H](O)[C@@H](O[C@H]3O[C@H](CO)[C@@H](O)[C@H](N)[C@H]3O)[C@H](N)C[C@@H]2N)[C@H](N)C[C@@H]1O` [TOB, tobramycin]: the MIC in experiment [2] (setting [9]), in experiment [2] (setting [10]), in experiment [2] (setting [11]) and in experiment [2] (strain PA 27853) was 0.5 µg/mL (≈ 1.07 µM) each time. Moreover, the cross-resistance entry in experiment [3] is “observed”.
In experiment [4], `NCC[C@H](O)C(=O)N[C@@H]1C[C@H](N)[C@@H](O[C@H]2O[C@H](CN)[C@@H](O)[C@H](O)[C@H]2O)[C@H](O)[C@H]1O[C@H]1O[C@H](CO)[C@@H](O)[C@H](N)[C@H]1O` [amikacin] returned an MBC of 8 µg/mL (≈ 13.7 µM) and an MIC of 4 µg/mL (≈ 6.83 µM). Besides, the stability of resistance entry in experiment [3] (resistant isolates from sub-optimal dosing regimens) is “phenotypically stable”. Also, in experiment [5] (AB BAA 747), the H was 3.06, the Kk turned out to be 27.81 h⁻¹, the β was 50.09 and the τ amounted to 442 µL/min/mg. The EC50 in experiment [5] (Acinetobacter baumannii, BAA747, AB BAA 747, read-out: C50k) was 1.56 µg/mL (≈ 2.66 µM). Further, in experiment [5] (after 2 hours of drug exposure), the “concentrations with complete bacterial eradication” value was above 16 mg/L.
`CO/N=C(\C(=O)N[C@@H]1C(=O)N2C(C(=O)[O-])=C(C[N+]3(C)CCCC3)CS[C@H]12)c1csc(N)n1` [cefepime]: the cross-resistance result in experiment [3] is given as “not”.
As to `O=C(O)c1cn(C2CC2)c2cc(N3CCNCC3)c(F)cc2c1=O` [ciprofloxacin], the “cross resistance, change in MIC” value in experiment [6] (levofloxacin resistant isolates) is given as at least 4 fold.
With `C[C@H]1COc2c(N3CCN(C)CC3)c(F)cc3c(=O)c(C(=O)O)cn1c23` [levofloxacin], the EC50 in the experiment with P. aeruginosa ATCC 27853 [7] (ATCC27853, read-out: C50) turned out to be 0.86 µg/mL (≈ 2.38 µM); with P. aeruginosa ATCC 27853 [7] (ATCC27853, read-out: C50b), 39.4 µg/mL (≈ 109 µM). Further, the C50A in the experiment on P. aeruginosa ATCC 27853 [7] (model fit) came out at 0.45 µg/mL. The compound also registered a H with P. aeruginosa ATCC 27853 [7] (model fit) of 1.7. The compound also came in with an HA with P. aeruginosa ATCC 27853 [7] (model fit) of 10. In addition, the Hb in the experiment with P. aeruginosa ATCC 27853 [7] (model fit) amounted to 24. The MIC turned out to be 2 Ig/mL in the experiment on P. aeruginosa ATCC 27853 [8]; 0.75 µg/mL (≈ 2.08 µM) in experiment [2] (setting [9]); 4 µg/mL (≈ 11.1 µM) in experiment [2] (setting [10]); 0.75 µg/mL (≈ 2.08 µM) in experiment [2] (strain PA 27853); 6 µg/mL (≈ 16.6 µM) in experiment [1]. In addition, the “increase in MIC compared to the parent strain” value in experiment [6] (two random isolates from drug supplemented media plates) worked out at 16 fold.
